The values that follow come from ChEMBL document CHEMBL1221180, “Metabolic installation of thiols into sialic acid modulates adhesion and stem cell biology” (Nat Chem Biol, 2006).

Calls of active or inactive are those of the source. No cut-off for these calls is given here.

For data set [1], the system named is Jurkat. The data set can be described thus: Increase in cell surface thiol level in human Jurkat cells at 320 uM after 64 hrs by avidin-FITC staining-based FACS analysis relative to untreated control. It is filed as functional. A general note: A flow cytometer gives signals particle by particle.
The test system of data set [2] is Jurkat. The data set can be described thus: Increase in cell surface thiol level in human Jurkat cells at 10 uM after 64 hrs by avidin-FITC staining-based FACS analysis relative to untreated control. The data set is classed as functional.
Data set [3] relates to Lvec. The data set can be described thus: Mild increase in beta-casein expression in human LVEC cultured on glass surface at 10 uM after 13 days by oregon green 488 phalloidin and DAPI staining. The data set is classed as functional, cell-based.
Data set [4] in a line: Induction of human LVEC cell differentiation into neural cell lineage cultured on gold-coated cover slips assessed as effect on cytoskeleton distribution at 10 uM measured on day 9 post treatment by DAPI staining-based confocal microscopy. It is filed as functional.
For data set [5], the system named is Lvec. The data set can be described thus: Increase in N-thioglycolylneuraminic acid level in human LVEC at 10 uM after 7 days by avidin-FITC staining-based FACS analysis relative to untreated control. It is filed as functional.
The test system of data set [6] is Jurkat. Briefly: Induction of human Jurkat cell adhesion assessed as covalent cellular attachment to maleimide functionalized BSA-coated superaldehyde glass surface at 100 uM after 48 hrs by fluorescence microscopy. The data set is classed as functional, cell-based.
The test system of data set [7] is Jurkat. Briefly: Increase in N-thioglycolylneuraminic acid level in human Jurkat cells at 10 uM after 2 hrs by avidin-FITC staining-based FACS analysis in presence of disulfide reducing agent TCEP relative to untreated control. It is filed as functional.
The test system of data set [8] is Jurkat. Briefly: Induction of human Jurkat cell adhesion assessed as covalent cellular attachment to BSA-coated superaldehyde glass surface at 100 uM after 48 hrs by fluorescence microscopy in absence of maleimide coating. It is filed as functional, cell-based.
Data set [9] has as its system Jurkat. Briefly: Cytotoxicity against human Jurkat cells at 100 uM after 48 hrs. The data set is classed as cell-based.
Data set [10] is described as follows: Decrease in human LVEC cell proliferation at 10 uM for 3 days followed by second treatment of 50 uM on day 4 measured on day 9 by nestin immunostaining. The data set is classed as cell-based. The conditions noted are these: 72 h.
Data set [11] deals with Jurkat. The data set can be described thus: Increase in N-thioglycolylneuraminic acid level in human Jurkat cells at 10 uM after 2 hrs by avidin-FITC staining-based FACS analysis in absence of disulfide reducing agent TCEP relative to untreated control. It is filed as functional.
Data set [12] deals with Jurkat. Briefly: Increase in cell surface thiol level in human Jurkat cells at 40 uM after 2 days by avidin-FITC staining-based FACS analysis relative to untreated control. It is filed as functional.
Data set [13] has as its system Lvec. Briefly: Increase in N-thioglycolylneuraminic acid level in human LVEC at 10 uM after 3 days by avidin-FITC staining-based FACS analysis. It is filed as functional, cell-based.
Data set [14] concerns Lvec. Briefly: Increase in N-thioglycolylneuraminic acid level in human LVEC after 7 days by avidin-FITC staining-based FACS analysis relative to untreated control. The data set is classed as functional, cell-based.
For data set [15], the system named is Jurkat. The data set can be described thus: Increase in cell surface thiol level in human Jurkat cells at 160 uM after 64 hrs by avidin-FITC staining-based FACS analysis relative to untreated control. It is filed as functional.
For data set [16], the system named is Lvec. The data set can be described thus: Translocation of beta-casein into nucleus of human LVEC cultured on gold-coated cover slips at 10 uM after 13 days by oregon green 488 phalloidin and DAPI staining. The data set is classed as functional, cell-based.
Data set [17] relates to Jurkat. Briefly: Induction of human Jurkat cell adhesion assessed as spontaneous clustering of cells at 50 uM after 2 days by inverted microscopy. It is filed as functional, cell-based.
The subject of data set [18] is Lvec. Briefly: Effect on human LVEC cell morphology cultured on gold-coated cover slips at 10 uM measured on day 9 post treatment by DAPI staining-based confocal microscopy. It is filed as functional.
Data set [19] has as its system Lvec. The data set can be described thus: Increase in beta-casein expression in human LVEC cultured on gold-coated cover slips at 10 uM after 13 days by oregon green 488 phalloidin and DAPI staining. The data set is classed as functional, cell-based.
Data set [20] concerns Jurkat. Briefly: Modulation of cell surface thiol level in human Jurkat cells at 100 uM after 64 hrs by avidin-FITC staining-based FACS analysis. The data set is classed as functional.

With `CC(=O)N[C@@H]1C(OC(C)=O)O[C@H](COC(C)=O)[C@@H](OC(C)=O)[C@@H]1OC(C)=O` (stereo partly specified), the “fold change (FC)” value in data set [1] was 34.

Turning to `CC(=O)OC[C@H]1O[C@H](OC(C)=O)[C@@H](NC(=O)CSC(C)=O)[C@@H](OC(C)=O)[C@@H]1OC(C)=O`, the “fold change (FC)” value came to 19 in [2]; 15 in data set [5]; 34 in [1]; 120 in data set [7]; 13 in data set [11]; 14 in data set [12]. Moreover, the “fold change (FC)” value in data set [15] is on record as 40. The outcome in data set [3], in data set [4], in [6], in data set [13], in [16] and in data set [17] was Active. The result in [18] and in data set [19] was Active. Further, the outcome in data set [8] was inactive. The results for the Activity entry in data set [9], in data set [10] and in data set [14] were “Non-toxic”, “Toxic” and “Dose-dependent effect”, respectively.

As for `CC(=O)OCC(=O)N[C@@H]1[C@@H](OC(C)=O)O[C@H](COC(C)=O)[C@@H](OC(C)=O)[C@@H]1OC(C)=O`, the outcome in data set [6] and in data set [17] was Active. For the same compound, the result in [8], in data set [20] and in data set [18] was inactive.

In the case of `CC(=O)CCC(=O)N[C@@H]1C(OC(C)=O)O[C@H](COC(C)=O)[C@@H](OC(C)=O)[C@@H]1OC(C)=O` (stereo partly specified), the “fold change (FC)” value in data set [1] worked out at 34.
